# Measured values as given in ChEMBL document CHEMBL5357056, “Precursor-Directed Biosynthesis of Antialgal Fluorinated Bacillamide Derivatives in Bacillus atrophaeus” (J Nat Prod, 2024).
# Experiments:
# [1] = Anti-phytoplankton activity against Skeletonema grethae assessed as reduction in chlorophyll a level measured after 72 hrs by fluorescence based analysis; assay type: functional, organism-based
# Karenia brevis = experiment: Anti-phytoplankton activity against Karenia brevis assessed as change in chlorophyll a level measured after 72 hrs by fluorescence based analysis; assay type: functional, organism-based
IC50 [1] [µM],IC50 (Karenia brevis) [µM],Compound
> 200,> 200,CC(=O)NCCc1c[nH]c2cccc(F)c12
> 200,> 200,CC(=O)N[C@H](C)c1nc(C(=O)NCCc2c[nH]c3cccc(F)c23)cs1
> 200,28.7,CC(=O)N[C@H](C)c1nc(C(=O)NCCc2c[nH]c3cc(F)ccc23)cs1
> 200,> 200,CC(=O)c1nc(C(=O)NCCc2c[nH]c3cccc(F)c23)cs1
> 200,186,CC(=O)c1nc(C(=O)NCCc2c[nH]c3ccc(F)cc23)cs1
> 200,107,CC(=O)c1nc(C(=O)NCCc2c[nH]c3cc(F)ccc23)cs1
> 200,> 200,CC(=O)N[C@H](C)c1nc(C(=O)NCCc2c[nH]c3ccc(F)cc23)cs1
> 200,> 200,CC(=O)c1nc(C(=O)NCCc2c[nH]c3ccccc23)cs1 [BACILLAMIDE A]
> 200,> 200,CC(=O)N[C@H](C)c1nc(C(=O)NCCc2c[nH]c3ccccc23)cs1 [BACILLAMIDE C]

Compound,IC50 [1] [µM],IC50 (Karenia brevis) [µM]
N#Cc1c(-c2ccc(Cl)cc2)[nH]c(C(F)(F)F)c1Br,13.1,1.35
CC(=O)NCCc1c[nH]c2ccccc12,> 200,> 200
C[C@@H]1C[C@@H]([C@H](O)CC2CC(=O)NC(=O)C2)C(=O)[C@@H](C)C1 [CYCLOHEXIMIDE],0.5,0.55
